US20100105694A1, “SUBSTITUTED PYRAZINONE DERIVATIVES FOR USE AS A MEDICINE” (priority 2006, published 2010)
Read-outs that look alike come from different tables or passages of the source.

How the values were obtained:
[1] = biological target: T1, human adrenergic-α2A receptor (Homo sapiens, UniProt P08913); assay: Radioligand binding experiment for hα2A receptor ([3H]raulwolscine, CHO cell membranes)
T1 construct: expressed in transfected cells; host or cells: CHO cells, stably transfected; membranes
T1 sequence (P08913 1-465): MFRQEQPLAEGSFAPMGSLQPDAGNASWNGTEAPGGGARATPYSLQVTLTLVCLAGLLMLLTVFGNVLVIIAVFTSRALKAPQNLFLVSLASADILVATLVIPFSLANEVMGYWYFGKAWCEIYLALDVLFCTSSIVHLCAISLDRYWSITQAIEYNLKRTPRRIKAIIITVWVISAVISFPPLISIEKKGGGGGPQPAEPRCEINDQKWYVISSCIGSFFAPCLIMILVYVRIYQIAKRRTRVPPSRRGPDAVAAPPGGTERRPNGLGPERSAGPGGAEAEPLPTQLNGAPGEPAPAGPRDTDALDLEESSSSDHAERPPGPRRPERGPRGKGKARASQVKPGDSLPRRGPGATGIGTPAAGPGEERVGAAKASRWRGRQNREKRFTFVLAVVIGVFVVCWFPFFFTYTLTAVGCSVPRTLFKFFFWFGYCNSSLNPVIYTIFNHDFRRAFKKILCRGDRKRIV
Procedure: (§1) The interaction of a compound of Formula (I) with α2C-adrenoceptor receptors was assessed in in vitro radioligand binding experiments. In general, a low concentration of a radioligand with a high binding affinity for a particular receptor or transporter is incubated with a sample of a tissue preparation enriched in a particular receptor or transporter or with a preparation of cells expressing cloned human receptors in a buffered medium. During the incubation, the radioligand binds to the receptor or transporter. When equilibrium of binding is reached, the receptor bound radioactivity is separated from the non-bound radioactivity, and the receptor- or transporter-bound activity is counted. The interaction of the test compounds with the receptor is assessed in competition binding experiments. Various concentrations of the test compound are added to the incubation mixture containing the receptor- or transporter preparation and the radioligand. The test compound in proportion to its binding affinity and its concentration inhibits binding of the radioligand. The radioligand used for hα2A and hα2C receptor binding was [^3H]-raulwolscine.
(§2) CHO cells, stabile transfected with human adrenergic-α2A and α2C receptor cDNA, were cultured in Dulbecco's Modified Eagle's Medium (DMEM)/Nutrient mixture Ham's F12 (ratio 1:1) (Gibco, Gent-Belgium) supplemented with 10% heat inactivated fetal calf serum (Life Technologies, Merelbeke-Belgium) and antibiotics (100 IU/ml penicillin G, 100 μg/ml streptomycin sulphate, 110 μg/ml pyruvic acid and 100 μg/ml L-glutamine). One day before collection, cells were induced with 5 mM sodiumbutyrate. Upon 80-90% of confluence, cells were scraped in phosphate buffered saline without Ca^2+ and Mg^2+ and collected by centrifugation at 1500×g for 10 minutes. The cells were homogenised in Tris-HCl 50 mM using an Ultraturrax homogenizer and centrifuged for 10 minutes at 23,500×g. The pellet was washed once by resuspension and rehomogenization and the final pellet was resuspended in Tris-HCl, divided in 1 ml aliquots and stored at −70° C.
(§3) Membranes were thawed and re-homogenized in incubation buffer (glycylglycine 25 mM, pH 8.0). […] Filters were rinsed extensively with ice-cold rinsing buffer (Tris-HCl 50 mM pH 7.4). Filter-bound radioactivity was determined by scintillation counting in a Topcount (Packard, Meriden, Conn.) and results were expressed as counts per minute (cpm). Non-specific binding was determined in the presence of 1 μM oxymetazoline for the hα2A receptor and 1 μM spiroxatrine for hα2C receptors.
(§4) Data from assays in the presence of compound were calculated as a percentage of total binding measured in the absence of test compound. Inhibition curves, plotting percent of total binding versus the log value of the concentration of the test compound, were automatically generated, and sigmoidal inhibition curves were fitted using non-linear regression. The pIC50 values of test compounds were derived from individual curves.

[2] = biological target: T2, human adrenergic-α2C receptor (Homo sapiens, UniProt P18825); assay: Radioligand binding experiment for α2C-adrenoceptor ([3H]raulwolscine, CHO cell membranes)
T2 construct: expressed in transfected cells; host or cells: CHO cells, stably transfected; membranes
T2 sequence (P18825 1-462): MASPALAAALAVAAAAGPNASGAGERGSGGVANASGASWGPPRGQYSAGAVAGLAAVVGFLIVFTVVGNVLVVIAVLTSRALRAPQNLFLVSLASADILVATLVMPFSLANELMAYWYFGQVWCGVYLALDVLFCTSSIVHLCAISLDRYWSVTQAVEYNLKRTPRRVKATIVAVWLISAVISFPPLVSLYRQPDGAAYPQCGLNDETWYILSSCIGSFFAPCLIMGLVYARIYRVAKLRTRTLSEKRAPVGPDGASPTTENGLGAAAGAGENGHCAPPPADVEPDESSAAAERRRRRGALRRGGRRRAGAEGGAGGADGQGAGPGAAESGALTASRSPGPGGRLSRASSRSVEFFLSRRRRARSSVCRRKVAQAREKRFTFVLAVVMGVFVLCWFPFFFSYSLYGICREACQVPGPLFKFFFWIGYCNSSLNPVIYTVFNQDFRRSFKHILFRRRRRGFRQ
Procedure: as §1, §2, §3, §4

5HT-Transporter = biological target: T3, 5HT-Transporter (Homo sapiens, UniProt P31645); assay: Binding experiment for the 5HT-transporter ([3H]paroxetine, human platelet membranes)
T3 construct: Human platelet membranes (Oceanix Biosciences Corporation, Hanover, Md., USA) were thawed; tissue Oceanix Biosciences Corporation; host or cells: human platelet membranes
T3 sequence (P31645 whole entry): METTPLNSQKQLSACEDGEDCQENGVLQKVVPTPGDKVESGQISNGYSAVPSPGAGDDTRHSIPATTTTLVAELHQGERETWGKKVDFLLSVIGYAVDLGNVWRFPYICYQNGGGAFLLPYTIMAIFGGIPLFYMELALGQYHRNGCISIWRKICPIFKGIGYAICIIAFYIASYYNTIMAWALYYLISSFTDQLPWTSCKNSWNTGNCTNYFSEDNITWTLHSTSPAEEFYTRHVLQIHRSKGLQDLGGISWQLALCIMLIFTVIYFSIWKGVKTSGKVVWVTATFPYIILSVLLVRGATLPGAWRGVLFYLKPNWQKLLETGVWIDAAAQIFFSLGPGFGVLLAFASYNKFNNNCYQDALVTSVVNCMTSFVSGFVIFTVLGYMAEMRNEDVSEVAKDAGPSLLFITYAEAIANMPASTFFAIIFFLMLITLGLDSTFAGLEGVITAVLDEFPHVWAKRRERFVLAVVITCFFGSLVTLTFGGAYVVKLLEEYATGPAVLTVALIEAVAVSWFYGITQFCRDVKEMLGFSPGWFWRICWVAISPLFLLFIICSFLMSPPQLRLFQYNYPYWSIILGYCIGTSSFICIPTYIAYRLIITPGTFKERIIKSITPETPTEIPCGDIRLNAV
Procedure: as §1
Human platelet membranes (Oceanix Biosciences Corporation, Hanover, Md., USA) were thawed, diluted in buffer (Tris-HCl 50 mM, 120 mM NaCl and 5 mM KCl) and quickly (max 3 s) homogenised with an Ultraturrax homogenizer. […] Incubation was stopped by rapid filtration of the incubation mixture over GF/B filters, pre-wetted with 0.1% polyethyleneamine, using a Filtermate196 harvester (Packard, Meriden, Conn.). Filters were rinsed extensively with ice-cold buffer and radioactivity on the filters was counted in a Topcount liquid scintillation counter (Packard, Meriden, Conn.). Data were expressed as cpm. Imipramine (at 1 μM final concentration) was used to determine the non-specific binding.
as §4

[3] = [3H]raulwolscine 1 nM, membranes of CHO cells transfected with human α2A receptor, read-out: h-α2A pIC50 (converted)
[4] = [3H]raulwolscine 1 nM, membranes of CHO cells transfected with human α2C receptor, read-out: h-α2C pIC50 (converted)
[5] = [3H]paroxetine 0.5 nM, read-out: h-5HTT pIC50 (converted)
[6] = h-5HTT pIC50, [3H]paroxetine 0.5 nM

| IC50 [1, 3] | IC50 [2, 4] | IC50 (5HT-Transporter; [5]) | Structure (SMILES) | IC50 [1] | IC50 [2] | IC50 (5HT-Transporter; [6]) |
| --- | --- | --- | --- | --- | --- | --- |
| 3.98 µM | 0.158 µM | 1.58 µM | O=C1c2ccccc2C(=O)N1CCCn1ccnc(NC2CCN(CCc3ccccc3)CC2)c1=O [Compound 6-6] |  |  |  |
| 0.794 µM | 0.398 µM | 5.01 µM | O=c1c(NC2CCN(CCc3ccccc3)CC2)nccn1Cc1ccccc1Br [Compound 6-7] |  |  |  |
| 0.794 µM | 0.0794 µM | 3.16 µM | CC(C)(C)OC(=O)NCCCn1ccnc(NC2CCN(CCCc3ccccc3)CC2)c1=O [Compound 7-2] |  |  |  |
| 1.58 µM | 0.126 µM | > 10 µM | O=c1c(NC2CCN(CCCc3ccccc3)CC2)nccn1CCN1CCCCC1 [Compound 7-4] |  |  |  |
| 3.98 µM | 0.794 µM | > 10 µM | COC(=O)Cn1ccnc(NC2CCN(CCCc3ccccc3)CC2)c1=O [Compound 7-6] |  |  |  |
| 1.58 µM | 0.398 µM | 2 µM | O=c1c(NC2CCN(CCCc3ccccc3)CC2)nccn1Cc1ccccc1Br [Compound 7-11] |  |  |  |
| 0.501 µM | 0.398 µM | 3.98 µM | O=C(Cn1ccnc(NC2CCN(CCCc3ccccc3)CC2)c1=O)c1ccccc1 [Compound 7-14] |  |  |  |
| 1 µM | 0.0251 µM | 3.16 µM | CN(CCc1ccccc1)C1CCN(c2nccn(CCCN3C(=O)c4ccccc4C3=O)c2=O)CC1 [Compound 8-1] |  |  |  |
| 0.316 µM | 0.0631 µM | > 10 µM | CN(CCc1ccccc1)C1CCN(c2nccn(CCC(=O)c3ccccc3)c2=O)CC1 [Compound 8-2] |  |  |  |
| 3.98 µM | 0.316 µM | > 10 µM | CC(C)(C)OC(=O)NCCCn1ccnc(NC2CCN(CC(c3ccccc3)c3ccccc3)CC2)c1=O [Compound 9-3] |  |  |  |
| 2.51 µM | 0.794 µM | > 10 µM | O=c1c(NC2CCN(CC(c3ccccc3)c3ccccc3)CC2)nccn1CCN1CCCCC1 [Compound 9-5] |  |  |  |
| 1.26 µM | 0.398 µM | 6.31 µM | O=C1c2ccccc2C(=O)N1CCCn1ccnc(NC2CCN(CC(c3ccccc3)c3ccccc3)CC2)c1=O [Compound 9-6] |  |  |  |
| 1.26 µM | 0.631 µM | 5.01 µM | O=c1c(NC2CCN(CC(c3ccccc3)c3ccccc3)CC2)nccn1Cc1cccc(Br)c1 [Compound 9-8] |  |  |  |
| 2.51 µM | 0.631 µM | > 10 µM | O=C(Cn1ccnc(NC2CCN(CC(c3ccccc3)c3ccccc3)CC2)c1=O)c1ccccc1 [Compound 9-10] |  |  |  |
| 0.251 µM | 0.316 µM | > 10 µM | CC(C)(C)OC(=O)NCc1ccc(Cn2ccnc(N3CCN(Cc4ccccc4)CC3)c2=O)cc1 [Compound 10-2] |  |  |  |
| 0.316 µM | 0.631 µM | > 10 µM | O=c1c(N2CCN(Cc3ccccc3)CC2)nccn1C/C=C/c1ccccc1 [Compound 10-5] |  |  |  |

The next lines start with the compound.

| Structure (SMILES) | IC50 [1, 3] | IC50 [2, 4] | IC50 (5HT-Transporter; [5]) | IC50 [1] | IC50 [2] | IC50 (5HT-Transporter; [6]) |
| --- | --- | --- | --- | --- | --- | --- |
| CC(C)(C)OC(=O)NCCCn1ccnc(NC2CCN(CCc3ccccc3)CC2)c1=O [Compound 6-4] | 3.16 µM | 0.631 µM | > 10 µM |  |  |  |
| O=c1c(NC2CCN(CCc3ccccc3)CC2)nccn1CCN1CCCCC1 [Compound 6-5] | 1.58 µM | 0.316 µM | > 10 µM |  |  |  |
| O=c1c(NC2CCN(CCc3ccccc3)CC2)nccn1Cc1cccc(Br)c1 [Compound 6-8] |  |  |  | 1 µM | 0.398 µM | 5.01 µM |
| O=c1c(NC2CCN(CCc3ccccc3)CC2)nccn1Cc1ccc(Br)cc1 [Compound 6-9] | 1.26 µM | 0.316 µM | 6.31 µM |  |  |  |
| NCc1ccc(Cn2ccnc(NC3CCN(CCCc4ccccc4)CC3)c2=O)cc1 [Compound 7-1] | 0.316 µM | 0.1 µM | 0.794 µM |  |  |  |
| CC(C)(C)OC(=O)NCc1ccc(Cn2ccnc(NC3CCN(CCCc4ccccc4)CC3)c2=O)cc1 [Compound 7-3] | 1.58 µM | 0.398 µM | 1.58 µM |  |  |  |
| O=C1c2ccccc2C(=O)N1CCCn1ccnc(NC2CCN(CCCc3ccccc3)CC2)c1=O [Compound 7-5] |  |  |  | 0.501 µM | 0.02 µM | 1 µM |
| O=c1[nH]ccnc1NC1CCN(CCCc2ccccc2)CC1 [Compound 7-7] |  |  |  | 1.58 µM | 0.794 µM | > 10 µM |
| CCCn1ccnc(NC2CCN(CCCc3ccccc3)CC2)c1=O [Compound 7-8] | 0.794 µM | 0.501 µM | 5.01 µM |  |  |  |
| CC(C)(C)C(=O)Cn1ccnc(NC2CCN(CCCc3ccccc3)CC2)c1=O [Compound 7-10] | 1.26 µM | 0.316 µM | > 10 µM |  |  |  |
| O=c1c(NC2CCN(CCCc3ccccc3)CC2)nccn1Cc1cccc(Br)c1 [Compound 7-12] | 2 µM | 0.501 µM | 2.51 µM |  |  |  |
| O=c1c(NC2CCN(CCCc3ccccc3)CC2)nccn1Cc1ccc(Br)cc1 [Compound 7-13] | 1.58 µM | 0.501 µM | 1 µM |  |  |  |
| CSCCn1ccnc(NC2CCN(CCCc3ccccc3)CC2)c1=O [Compound 7-15] | 1 µM | 0.398 µM | 3.16 µM |  |  |  |
| NCc1ccc(Cn2ccnc(NC3CCN(CC(c4ccccc4)c4ccccc4)CC3)c2=O)cc1 [Compound 9-2] | 0.794 µM | 0.631 µM | 2.51 µM |  |  |  |
| CC(C)(C)OC(=O)NCc1ccc(Cn2ccnc(NC3CCN(CC(c4ccccc4)c4ccccc4)CC3)c2=O)cc1 [Compound 9-4] | 3.16 µM | 0.631 µM | > 10 µM |  |  |  |
| O=c1c(NC2CCN(CC(c3ccccc3)c3ccccc3)CC2)nccn1Cc1ccccc1Br [Compound 9-7] | 1 µM | 0.631 µM | > 10 µM |  |  |  |
| O=c1c(NC2CCN(CC(c3ccccc3)c3ccccc3)CC2)nccn1Cc1ccc(Br)cc1 [Compound 9-9] | 1.26 µM | 0.501 µM | 6.31 µM |  |  |  |
| NCc1ccc(Cn2ccnc(N3CCN(CCc4ccccc4)CC3)c2=O)cc1 [Compound 10-1] | 0.794 µM | 0.631 µM | > 10 µM |  |  |  |
| C=CCn1ccnc(N2CCN(CCc3ccccc3)CC2)c1=O [Compound 10-4] | 2.51 µM | 0.631 µM | > 10 µM |  |  |  |
